pIC50: −log10 of the molar value. Like-named read-outs stand apart in the source and are kept apart here.
Assays:
CDK5/p25 = CDK5/p25 (Homo sapiens, UniProt Q00535); assay: CDK5 mobility shift assay (enzymatic activity of CDK5/p25); format: biochemical; details: for pIC50: 0.154 nM CDK5/p25, FL peptide 29, 60 min at room temperature, read-out: CDK5 IC50
Procedure: (§1) Compound potency was measured via a change in the enzymatic activity of CDK5/p25, and optionally of CDK2/CycA2. Enzymes, CDK5/p25 and CDK2/CycA2, were sourced from Carna Biosciences (Cat #04-106 and 04-103, respectively). Test compound stocks were diluted in 100% DMSO and serially diluted 3-fold in a 384-well plate using a TECAN EVO200 (TECAN). Staurosporine was used as a reference control compound in all assays.
(§2) Twenty nL of compound were transferred into a 384-well plate (Greiner 781201) using an Echo550 (Labcyte Inc). Enzyme, ATP, and 10 mM MgCl2 were preincubated at room temperature with the compound in assay buffer (50 mM HEPES pH 7.5, 1 mM EGTA, 0.01% Brij-35, 0.05% BSA, 2 mM DTT) for 30 minutes. Peptide substrate (FL peptide 29 (Perkin Elmer) for CDK5/p25; FL Peptide 18 (Perkin Elmer) for CDK2/CycA2) was added to initiate the reaction. The final assay contained 0.154 nM CDK5/p25 or 1.25 nM CDK2/CycA2, […] (for CDK5/p25) or 37 μM (for CDK2/CycA2) ATP, and 1.5 μM of the appropriate peptide substrate. The final DMSO concentration was <1%.
(§3) The CDK5/p25 reaction was incubated at room temperature for 60 min. The CDK2/CycA2 reaction was incubated at room temperature for 120 min. The reactions were quenched by the addition of 70 μL stopping buffer containing 0.5 M EDTA. Samples were analyzed using the EZ Reader (Perkin Elmer).
(§4) The results were expressed as % vehicle, where % vehicle=100×(U−C2)/(C1−C2), where U is the signal of sample, C1 is the average of the high controls (signal with no compound added), and C2 is the average of low controls (signal with the buffer in place of enzyme). The ICso is determined by fitting the percentage of inhibition as a function of compound concentrations using a 4-parameter fit defined as follows.
(§5) Y=Bottom+(Top−Bottom)/(1+10^((LobIC50-X)*Hill Slope)), where X is the log of the compound concentration, Y is the % vehicle or response at X, Top and Bottom are the plateaus in the same units as Y, and the Hill's Slope is unitless, and the ICso is the half-maximal inhibitory concentration.

CDK2/CycA2 = CDK2/CycA2 (Homo sapiens, UniProt P24941); assay: CDK2 mobility shift assay (enzymatic activity of CDK2/CycA2); format: biochemical; details: 1.25 nM CDK2/CycA2, 37 μM ATP, FL Peptide 18, 120 min at room temperature; read-out: CDK2 IC50
Procedure: as §1, §2, §3, §4, §5

[1] = fold more active against CDK5 than CDK2

Sequence of CDK5/p25 (Q00535 whole entry): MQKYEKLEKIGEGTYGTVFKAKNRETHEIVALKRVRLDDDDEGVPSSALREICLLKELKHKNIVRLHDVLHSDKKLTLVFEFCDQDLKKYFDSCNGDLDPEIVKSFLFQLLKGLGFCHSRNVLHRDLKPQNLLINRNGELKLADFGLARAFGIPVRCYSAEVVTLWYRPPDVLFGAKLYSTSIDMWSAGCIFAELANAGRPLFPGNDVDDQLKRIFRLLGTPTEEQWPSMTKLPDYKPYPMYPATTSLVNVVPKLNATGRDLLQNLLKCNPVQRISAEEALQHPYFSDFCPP
Sequence of CDK5/p25 (Q15078 99-307 partner limits assumed): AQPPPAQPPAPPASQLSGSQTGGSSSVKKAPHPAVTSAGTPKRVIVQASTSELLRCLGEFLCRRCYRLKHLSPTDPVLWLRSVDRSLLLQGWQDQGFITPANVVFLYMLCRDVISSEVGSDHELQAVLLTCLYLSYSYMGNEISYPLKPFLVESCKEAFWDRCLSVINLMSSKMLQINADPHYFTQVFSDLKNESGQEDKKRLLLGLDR

## CCC(O)(c1ccc2cnc(Nc3ccc(-n4cccn4)cc3F)cc2n1)C1CCN(C)CC1 (stereo not drawn) [Compound 392]
CDK5/p25
  pIC50: 7.00 to 8.00
CDK5/p25; [1]
  CDK5/CDK2 specificity: ++ (greater than 10-fold and less than or equal to 100-fold more active against CDK5 than CDK2)
CDK2/CycA2
  pIC50: 6.00 to 7.00

## CN1CCC(C(F)(F)c2ccc3cnc(Nc4ccc(-n5cccn5)cc4F)cc3n2)CC1 [Compound 291, 2-[difluoro(1-methylpiperidin-4-yl)methyl]-N-[2-fluoro-4-(pyrazol-1-yl)phenyl]-1,6-naphthyridin-7-amine]
CDK5/p25
  pIC50: > 8.00
CDK5/p25; [1]
  CDK5/CDK2 specificity: ++ (greater than 10-fold and less than or equal to 100-fold more active against CDK5 than CDK2)
CDK2/CycA2
  pIC50: 7.00 to 8.00

## CN1CCC(S(=O)(=O)c2ccc3cnc(Nc4cccc(N5CCN(C)CC5)c4)cc3n2)CC1 [Compound 277]
CDK5/p25
  pIC50: > 8.00
CDK5/p25; [1]
  CDK5/CDK2 specificity: ++ (greater than 10-fold and less than or equal to 100-fold more active against CDK5 than CDK2)
CDK2/CycA2
  pIC50: 6.00 to 7.00

## CN1CCN(S(=O)(=O)c2ccc3cnc(Nc4ccc(-n5ccc(CO)n5)cc4F)cc3n2)CC1 [Compound 245, [1-(3-fluoro-4-[[2-(4-methylpiperazin-1-ylsulfonyl)-1,6-naphthyridin-7-yl]amino]phenyl)pyrazol-3-yl]methanol]
CDK5/p25
  pIC50: 6.00 to 7.00
CDK5/p25; [1]
  CDK5/CDK2 specificity: + (10-fold or less more active against CDK5 than CDK2)
CDK2/CycA2
  pIC50: 6.00 to 7.00

## 3-fluoro-4-([2-[(1R)-1-hydroxy-1-(1-methylpiperidin-4-yl)ethyl]-1,6-naphthyridin-7-yl]amino)-[1,1-biphenyl]-3-carboxylic acid [Compound 360]
CDK5/p25
  CDK5/CDK2 specificity: ++ (greater than 10-fold and less than or equal to 100-fold more active against CDK5 than CDK2)
  pIC50: > 8.00
CDK2/CycA2
  pIC50: 7.00 to 8.00

## Cc1ccc(F)c(Nc2cc3nc(C(O)(C4CCN(C)CC4)C(F)(F)F)ccc3cn2)c1 (stereo not drawn) [Compound 394]
CDK5/p25
  pIC50: > 8.00
CDK5/p25; [1]
  CDK5/CDK2 specificity: ++ (greater than 10-fold and less than or equal to 100-fold more active against CDK5 than CDK2)
CDK2/CycA2
  pIC50: 7.00 to 8.00

## OCCN1CCC(Sc2ccc3cnc(Nc4ccc(-n5ccc(CO)n5)cc4F)cc3n2)CC1 [Compound 138, 2-(4-[[7-([2-fluoro-4-[3-(hydroxymethyl)pyrazol-1-yl]phenyl]amino)-1,6-naphthyridin-2-yl]sulfanyl]piperidin-1-yl)ethanol]
CDK5/p25
  pIC50: > 8.00
CDK5/p25; [1]
  CDK5/CDK2 specificity: ++ (greater than 10-fold and less than or equal to 100-fold more active against CDK5 than CDK2)
CDK2/CycA2
  pIC50: 7.00 to 8.00

## Cc1cc(C(=O)NC(C)C)ccc1Nc1cc2nc(S(=O)(=O)C3CCN(C)CC3)ccc2cn1 [Compound 265]
CDK5/p25
  pIC50: 7.00 to 8.00
CDK5/p25; [1]
  CDK5/CDK2 specificity: +++ (greater than 100-fold more active against CDK5 than CDK2)
CDK2/CycA2
  pIC50: < 6.00

## CCc1cccc(Nc2cc3nc(C(C)(O)C4CCN(C)CC4)ccc3cn2)c1 (stereo not drawn) [Compound 373]
CDK5/p25
  pIC50: > 8.00
CDK5/p25; [1]
  CDK5/CDK2 specificity: ++ (greater than 10-fold and less than or equal to 100-fold more active against CDK5 than CDK2)
CDK2/CycA2
  pIC50: 7.00 to 8.00

## CN1CCC(S(=O)(=O)c2ccc3cnc(Nc4ccc5c(c4)COC5)cc3n2)CC1 [Compound 282]
CDK5/p25
  pIC50: > 8.00
CDK5/p25; [1]
  CDK5/CDK2 specificity: ++ (greater than 10-fold and less than or equal to 100-fold more active against CDK5 than CDK2)
CDK2/CycA2
  pIC50: 7.00 to 8.00

## CN1CCC(NS(=O)(=O)c2ccc3cnc(Nc4ccc(-n5ccc(CO)n5)cc4F)cc3n2)C1 (stereo not drawn) [Compound 248]
CDK5/p25
  pIC50: 7.00 to 8.00
CDK5/p25; [1]
  CDK5/CDK2 specificity: + (10-fold or less more active against CDK5 than CDK2)
CDK2/CycA2
  pIC50: 6.00 to 7.00

## CN1CCC(C(C)(O)c2ccc3cnc(Nc4ccc(-c5ccc(C#N)cc5)cc4F)cc3n2)CC1 (stereo not drawn) [Compound 358]
CDK5/p25
  pIC50: > 8.00
CDK5/p25; [1]
  CDK5/CDK2 specificity: ++ (greater than 10-fold and less than or equal to 100-fold more active against CDK5 than CDK2)
CDK2/CycA2
  pIC50: 7.00 to 8.00

Source: patent publication US20220389009A1, “SUBSTITUTED 1,6-NAPHTHYRIDINE INHIBITORS OF CDK5” (Goldfinch Bio, Inc., priority 2019, published 2022)
